Here are results for one compound from patent US20130217722A1, “NOVEL COMPOUND USEFUL FOR THE TREATMENT OF DEGENERATIVE AND INFLAMMATORY DISEASES” (priority 2012, published 2013).

Test [1] has as its target T1, TYK2 (Homo sapiens, UniProt P29597).
T1 construct: purchased Carna Biosciences 09CBS-0983D
Briefly: TYK2 Ki determination assay (kinase tracer binding). Particulars: kinase tracer 236 binding; read-out: Ki against TYK2. The method, then:
TYK2 (Carna Biosciences, 09CBS-0983D) was used at a final concentration of 5 nM. The binding experiment was performed in 50 mM Hepes pH 7.5, 0.01% Brij-35, 10 mM MgCl2, 1 mM EGTA using 50 nM kinase tracer 236 (Invitrogen, PV5592) and 2 nM Eu-anti-GST (Invitrogen, PV5594) with varying compound concentrations. Detection of tracer was performed according to the manufacturers' procedure.

Test [2] deals with T2, JAK1 (Homo sapiens, UniProt P23458).
T2 construct: Recombinant human JAK1 (catalytic domain, amino acids 866-1154; catalog number PV4774) was purchased from Invitrogen; purchased Invitrogen PV4774
In words: JAK1 Ulight-JAK1 peptide assay. The format is biochemical. The method, then:
Recombinant human JAK1 (catalytic domain, amino acids 866-1154; catalog number PV4774) was purchased from Invitrogen. 1 ng of JAK1 was incubated with 20 nM Ulight-JAK1(tyr1023) peptide (Perkin Elmer catalog number TRF0121) in kinase reaction buffer (25 mM MOPS pH6.8, 0.01% Brij-35, 5 mM MgCl2, 2 mM DTT, 7 μM ATP) with or without 4 μL containing test compound or vehicle (DMSO, 1% final concentration), in a total volume of 20 μL, in a white 384 Opti plate (Perkin Elmer, catalog number 6007290). […] Readout is performed using the Envision with excitation at 320 nm and measuring emission at 615 nm (Perkin Elmer). Kinase activity was calculated by subtracting relative fluorescence units (RFU) obtained in the presence of a positive control inhibitor (10 μM staurosporine) from RFU obtained in the presence of vehicle. The ability of a test compound to inhibit this activity was determined as:
Percentage inhibition=((RFU determined for sample with test compound present−RFU determined for sample with positive control inhibitor) divided by (RFU determined in the presence of vehicle−RFU determined for sample with positive control inhibitor))*100.
Dose dilution series were prepared for the compounds enabling the testing of dose-response effects in the JAK1 assay and the calculation of the IC50 for the compound. […] The data are expressed as the average IC50 from the assays ±standard error of the mean.

Test [3] deals with T3, Recombinant human JAK3 catalytic domain (Homo sapiens, UniProt P52333).
T3 construct: Recombinant human JAK3 catalytic domain (amino acids 781-1124; catalog number PV3855) was purchased from Invitrogen; purchased Invitrogen PV3855
In words: JAK3 inhibition assay (polyGT substrate). The format is biochemical. The method, then: Recombinant human JAK3 catalytic domain (amino acids 781-1124; catalog number PV3855) was purchased from Invitrogen. 0.5 ng JAK3 protein was incubated with 2.5 μg polyGT substrate (Sigma catalog number P0275) in kinase reaction buffer (25 mM Tris pH 7.5, 0.5 mM EGTA, 10 mM MgCl2, 2.5 mM DTT, 0.5 mM Na3VO4, 5 mM b-glycerolphosphate, 0.01% Triton X-100, 1 μM non-radioactive ATP, 0.25 μCi ^33P-gamma-ATP (GE Healthcare, catalog number AH9968) final concentrations) with or without 5 μL containing test compound or vehicle (DMSO, 1% final concentration), in a total volume of 25 μL, in a polypropylene 96-well plate (Greiner, V-bottom). After 45 min at 30° C., reactions were stopped by adding 25 μL/well of 150 mM phosphoric acid. […] 40 μL/well of Microscint-20 was added, the top of the plates was sealed and readout was performed using the Topcount (Perkin Elmer). Kinase activity was calculated by subtracting counts per min (cpm) obtained in the presence of a positive control inhibitor (10 μM staurosporine) from cpm obtained in the presence of vehicle. The ability of a test compound to inhibit this activity was determined as:
Percentage inhibition=((cpm determined for sample with test compound present−cpm determined for sample with positive control inhibitor) divided by (cpm determined in the presence of vehicle−cpm determined for sample with positive control inhibitor))*100. […]

Test [4] has as its target T4, JAK2 (Homo sapiens, UniProt O60674).
T4 construct: Recombinant human JAK2 catalytic domain (amino acids 808-1132; catalog number PV4210) was purchased from Invitrogen; purchased Invitrogen PV4210
In words: JAK2 Ulight-JAK1 peptide assay. It is filed as biochemical. The method, then: Recombinant human JAK2 (catalytic domain, amino acids […]; catalog number PV4210) was purchased from Invitrogen. 0.0125 mU of JAK2 was incubated with 25 nM Ulight-JAK1(tyr1023) peptide (Perkin Elmer catalog number TRF0121) in kinase reaction buffer (25 mM HEPES pH7.0, 0.01% Triton X-100, 7.5 mM MgCl2, 2 mM DTT, 7.5 μM ATP) with or without 4 μL containing test compound or vehicle (DMSO, 1% final concentration), in a total volume of 20 μL, in a white 384 Opti plate (Perkin Elmer, catalog number 6007290). After 60 min at rt, reactions were stopped by adding 20 μL/well of detection mixture (1× detection buffer (Perkin Elmer, catalog number CR97-100C), 0.5 nM Europium-anti-phosphotyrosine (PT66) (Perkin Elmer, catalog number AD0068), 10 mM EDTA). Readout is performed using the Envision with excitation at 320 nm and measuring emission at 615 nm (Perkin Elmer). Kinase activity was calculated by subtracting relative fluorescence units (RFU) obtained in the presence of a positive control inhibitor (10 μM staurosporine) from RFU obtained in the presence of vehicle. The ability of a test compound to inhibit this activity was determined as:
Percentage inhibition=((RFU determined for sample with test compound present−RFU determined for sample with positive control inhibitor) divided by (RFU determined in the presence of vehicle−RFU determined for sample with positive control inhibitor))*100. […]

“And” between values parts separate entries of the source, which are not always exact repeats. Identical values can stand only once.

T2 sequence (P23458 866-1154): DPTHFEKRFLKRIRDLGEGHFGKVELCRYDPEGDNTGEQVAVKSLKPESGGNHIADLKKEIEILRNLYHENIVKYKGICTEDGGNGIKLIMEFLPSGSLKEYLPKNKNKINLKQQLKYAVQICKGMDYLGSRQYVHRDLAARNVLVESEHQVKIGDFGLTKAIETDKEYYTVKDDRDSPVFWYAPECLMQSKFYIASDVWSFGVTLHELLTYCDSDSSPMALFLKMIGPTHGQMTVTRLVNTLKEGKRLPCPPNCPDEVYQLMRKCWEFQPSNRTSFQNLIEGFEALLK
T3 sequence (P52333 781-1124): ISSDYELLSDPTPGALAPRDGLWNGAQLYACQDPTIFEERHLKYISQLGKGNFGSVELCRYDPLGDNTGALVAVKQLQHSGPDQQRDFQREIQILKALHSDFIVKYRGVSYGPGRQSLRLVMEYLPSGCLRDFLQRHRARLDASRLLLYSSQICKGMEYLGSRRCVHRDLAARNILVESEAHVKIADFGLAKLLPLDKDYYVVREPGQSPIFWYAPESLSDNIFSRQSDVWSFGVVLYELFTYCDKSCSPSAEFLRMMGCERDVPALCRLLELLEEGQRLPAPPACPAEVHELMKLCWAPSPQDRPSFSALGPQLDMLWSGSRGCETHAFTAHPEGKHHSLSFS
T4 sequence (O60674 808-1132): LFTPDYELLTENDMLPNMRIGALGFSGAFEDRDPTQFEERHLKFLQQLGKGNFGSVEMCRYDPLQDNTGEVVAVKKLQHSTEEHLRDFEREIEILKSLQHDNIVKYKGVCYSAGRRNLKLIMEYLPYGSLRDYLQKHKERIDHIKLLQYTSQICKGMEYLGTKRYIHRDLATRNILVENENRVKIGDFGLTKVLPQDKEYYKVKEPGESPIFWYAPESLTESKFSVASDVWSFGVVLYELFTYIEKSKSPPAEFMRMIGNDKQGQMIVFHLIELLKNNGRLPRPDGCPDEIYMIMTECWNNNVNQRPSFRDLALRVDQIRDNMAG
T1 sequence (P29597 whole entry): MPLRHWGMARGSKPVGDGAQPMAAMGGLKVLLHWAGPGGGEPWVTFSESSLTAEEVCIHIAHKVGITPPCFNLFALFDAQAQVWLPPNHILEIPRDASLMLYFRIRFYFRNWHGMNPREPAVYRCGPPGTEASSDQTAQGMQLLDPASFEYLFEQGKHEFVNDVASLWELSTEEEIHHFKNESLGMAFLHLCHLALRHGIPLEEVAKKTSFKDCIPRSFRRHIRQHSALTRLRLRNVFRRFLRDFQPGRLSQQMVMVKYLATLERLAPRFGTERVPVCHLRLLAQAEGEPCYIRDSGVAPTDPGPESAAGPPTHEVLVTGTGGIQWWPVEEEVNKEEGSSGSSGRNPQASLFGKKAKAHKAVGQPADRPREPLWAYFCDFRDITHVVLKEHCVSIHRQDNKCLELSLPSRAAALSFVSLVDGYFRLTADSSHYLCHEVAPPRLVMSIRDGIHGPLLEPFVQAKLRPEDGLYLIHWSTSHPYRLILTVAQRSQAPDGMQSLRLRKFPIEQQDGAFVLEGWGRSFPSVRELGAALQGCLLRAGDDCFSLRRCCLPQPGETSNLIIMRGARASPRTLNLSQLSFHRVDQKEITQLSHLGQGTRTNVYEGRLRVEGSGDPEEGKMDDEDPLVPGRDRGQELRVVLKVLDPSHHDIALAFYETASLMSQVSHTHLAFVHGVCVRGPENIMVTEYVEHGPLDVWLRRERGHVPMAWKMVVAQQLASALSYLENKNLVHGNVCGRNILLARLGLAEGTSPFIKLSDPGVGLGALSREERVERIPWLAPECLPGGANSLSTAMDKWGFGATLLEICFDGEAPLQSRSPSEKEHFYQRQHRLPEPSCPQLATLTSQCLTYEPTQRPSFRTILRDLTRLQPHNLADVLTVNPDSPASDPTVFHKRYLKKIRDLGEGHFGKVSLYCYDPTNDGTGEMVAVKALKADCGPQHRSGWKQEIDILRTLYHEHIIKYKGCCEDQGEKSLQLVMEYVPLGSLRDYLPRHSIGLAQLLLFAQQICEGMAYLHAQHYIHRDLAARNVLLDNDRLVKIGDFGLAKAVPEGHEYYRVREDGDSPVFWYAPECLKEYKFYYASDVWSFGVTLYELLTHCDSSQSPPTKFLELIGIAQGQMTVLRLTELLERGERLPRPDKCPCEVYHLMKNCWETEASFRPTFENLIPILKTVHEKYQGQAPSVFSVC

Usually Ki stands for the dissociation constant of the complex between target and ligand, obtained from inhibition or displacement. Broadly, the IC50 is the concentration that inhibits the measured activity by half. As for `CCc1cc(C2=CCN(C(=O)CC#N)CC2)ccc1N(C)c1cc2c(cn1)ncn2C` [Compound 1], in test [1], the inhibition constant Ki is 70.7 nM and 108 nM. The “selectivity for JAK1 vs the other JAK family members (JAK2, JAK3, and TYK2)” value in test [2] is reported as “at least 9 fold”. Further, the IC50 was 1.37 nM and 1.47 nM and 1.6 nM and 3.08 nM and 1.13 nM and 1.45 nM (2×) and 1.92 nM and 2.34 nM and 2.42 nM and 1.42 nM and 4.09 nM and 4.14 nM and 3.63 nM and 3.46 nM and 2.31 nM and 0.815 nM and 6.84 nM and 6.14 nM and 0.756 nM in test [2] (Ulight-JAK1(tyr1023) peptide, 7 μM ATP, individual determinations, read-out: IC50 against JAK1); 160 nM and 65.2 nM and 142 nM and 66.9 nM and 30.9 nM and 32.8 nM and 38 nM and 66.6 nM in test [3] (polyGT substrate, 1 μM ATP, individual determinations, read-out: IC50 against JAK3); 61.5 nM and 108 nM and 101 nM and 42.9 nM and 26.4 nM and 155 nM and 35.7 nM and 30.5 nM in test [4] (Ulight-JAK1(tyr1023) peptide, 7.5 μM ATP, individual determinations, read-out: IC50 against JAK2). Further, in test [3], the “JAK1 selectivity vs JAK3” value was 30 fold. Further, in test [4], the “JAK1 selectivity vs JAK2” value was found to be 28 fold.
